Assay results from US12043599B2, “Herbicidal compounds” (SYNGENTA PARTICIPATIONS AG, priority 2018, dated 2024).

Assays:
Type in all cases: in vivo
Details in all cases: 250 g/h, evaluated after 13 days
[1] = tested on: Alopecurus myosuroides (ALOMY); assay: Pre-emergence herbicidal glasshouse test, percentage damage
Outline: (§1)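 Seeds are sown in pots, grown at 24/16 °C day/night with 14 h light and 65% humidity, then sprayed at day 1 (pre-emergence) or day 8 (post-emergence). The rate is 250 g/h in acetone/water 50:50 with 0.5% Tween 20. Damage is assessed 13 days later on a 1–5 scale.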

Avena fatua (AVEFA) [2] = assay: as above
Outline: as §1

[3] = tested on: Echinochloa crus-galli (ECHCG); assay: as above
Outline: as §1

Lolium perenne (LOLPE) [4] = assay: as above
Outline: as §1

Setaria faberi (SETFA) [5] = assay: as above
Outline: as §1

Setaria faberi (SETFA) [6] = assay: Post-emergence herbicidal glasshouse test, percentage damage
Outline: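 Percentage damage was scored 13 days after treatment on a five-point scale (1=0-19% to 5=80-100%). Treatments were post-emergence sprays on 8-day-old wheat, barley and SETFA plants in a glasshouse (24/16 °C day/night, 14 h light, 65% humidity), using acetone/water 50:50 with 0.5% Tween 20 at the stated rates. Wheat additionally received cloquintocet-mexyl safener at 50 g/ha.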

[7] = tested on: Alopecurus myosuroides (ALOMY); assay: as above
Outline: as §1

Avena fatua (AVEFA) [8] = assay: as above
Outline: as §1

[9] = tested on: Echinochloa crus-galli (ECHCG); assay: as above
Outline: as §1

Lolium perenne (LOLPE) [10] = assay: as above
Outline: as §1

Row | SMILES | ALOMY PRE percentage damage (five point scale) [1] | AVEFA PRE percentage damage (five point scale) (Avena fatua (AVEFA) [2]) | ECHCG PRE percentage damage (five point scale) [3] | LOLPE PRE percentage damage (five point scale) (Lolium perenne (LOLPE) [4]) | SETFA PRE percentage damage (five point scale) (Setaria faberi (SETFA) [5]) | SETFA POST percentage damage (five point scale) (Setaria faberi (SETFA) [6]) | ALOMY POST percentage damage (five point scale) [7] | AVEFA POST percentage damage (five point scale) (Avena fatua (AVEFA) [8]) | ECHCG POST percentage damage (five point scale) [9] | LOLPE POST percentage damage (five point scale) (Lolium perenne (LOLPE) [10])
1 | CC#Cc1cc(C)c(C2C(=O)CC3(CCN(C(=O)COC(F)(F)F)CC3)CC2=O)c(C)c1 [Compound A199] | 5 (5=80-100%) | 5 (5=80-100%) | 5 (5=80-100%) | 5 (5=80-100%) | 5 (5=80-100%) | 5 (5=80-100%) | 5 (5=80-100%) | 5 (5=80-100%) | 5 (5=80-100%) | 5 (5=80-100%)
2 | CC#Cc1cc(C)c(C2=C(OC(=O)OC)CC3(CCN(C(=O)OC(C)(C)C)CC3)CC2=O)c(C)c1 [Compound P21] | 5 (5=80-100%) | 4 (4=60-79%) | 5 (5=80-100%) | 5 (5=80-100%) | 5 (5=80-100%) | 5 (5=80-100%) | 5 (5=80-100%) | 5 (5=80-100%) | 5 (5=80-100%) | 5 (5=80-100%)
3 | CC#Cc1cc(C)c(C2C(=O)CC3(CCN(C(=O)C4=NOCC4)CC3)CC2=O)c(C)c1 [Compound A88] | 5 (5=80-100%) | 5 (5=80-100%) | 5 (5=80-100%) | 5 (5=80-100%) | 5 (5=80-100%) | 5 (5=80-100%) | 5 (5=80-100%) | 5 (5=80-100%) | 5 (5=80-100%) | 5 (5=80-100%)
4 | CC#Cc1cc(C)c(C2C(=O)CC3(CCN(C(=O)NC(=O)c4ccc(OC)cn4)CC3)CC2=O)c(C)c1 [Compound A176] | 3 (3=40-59%) | 2 (2=20-39%) | 5 (5=80-100%) | 5 (5=80-100%) | 5 (5=80-100%) | 5 (5=80-100%) | 5 (5=80-100%) | 2 (2=20-39%) | 5 (5=80-100%) | 5 (5=80-100%)
5 | CC#Cc1cc(C)c(C2C(=O)CC3(CCN(C(=O)NC(C)=O)CC3)CC2=O)c(C)c1 [Compound A71] | 5 (5=80-100%) | 5 (5=80-100%) | 5 (5=80-100%) | 5 (5=80-100%) | 5 (5=80-100%) | 5 (5=80-100%) | 5 (5=80-100%) | 5 (5=80-100%) | 5 (5=80-100%) | 5 (5=80-100%)
6 | CC#Cc1cc(C)c(C2C(=O)CC3(CCN(C(=O)C4CCOCC4)CC3)CC2=O)c(C)c1 [Compound A38] | 5 (5=80-100%) | 3 (3=40-59%) | 5 (5=80-100%) | 5 (5=80-100%) | 5 (5=80-100%) | 5 (5=80-100%) | 5 (5=80-100%) | 4 (4=60-79%) | 5 (5=80-100%) | 5 (5=80-100%)
7 | CC#Cc1cc(C)c(C2=C(OC(C)=O)CC3(CCN(C(N)=O)CC3)CC2=O)c(C)c1 [Compound P9] | 5 (5=80-100%) | 4 (4=60-79%) | 5 (5=80-100%) | 5 (5=80-100%) | 5 (5=80-100%) | 5 (5=80-100%) | 5 (5=80-100%) | 5 (5=80-100%) | 5 (5=80-100%) | 5 (5=80-100%)
8 | CC#Cc1cc(C)c(C2C(=O)CC3(CCN(C(=O)OC(C)(C)C)CC3)CC2=O)c(C)c1 [Compound A12, tert-butyl 9-(2,6-dimethyl-4-prop-1-ynyl-phenyl)-8,10-dioxo-3-azaspiro[5.5]undecane-3-carboxylate] | 4 (4=60-79%) | 4 (4=60-79%) | 5 (5=80-100%) | 5 (5=80-100%) | 5 (5=80-100%) | 5 (5=80-100%) | 5 (5=80-100%) | 5 (5=80-100%) | 5 (5=80-100%) | 5 (5=80-100%)
9 | C=CCOCC(=O)N1CCC2(CC1)CC(=O)C(c1c(C)cc(C#CC)cc1C)C(=O)C2 [Compound A201] | 5 (5=80-100%) | 4 (4=60-79%) | 5 (5=80-100%) | 5 (5=80-100%) | 5 (5=80-100%) | 5 (5=80-100%) | 5 (5=80-100%) | 5 (5=80-100%) | 5 (5=80-100%) | 5 (5=80-100%)
10 | CC#Cc1cc(C)c(C2C(=O)CC3(CCN(S(=O)(=O)CC4CC4)CC3)CC2=O)c(C)c1 [Compound A15] | 5 (5=80-100%) | 5 (5=80-100%) | 5 (5=80-100%) | 5 (5=80-100%) | 5 (5=80-100%) | 5 (5=80-100%) | 5 (5=80-100%) | 5 (5=80-100%) |  | 5 (5=80-100%)
11 | CC#Cc1cc(C)c(C2=C(OC(=O)OC)CC3(CCN(C(=O)C4(C#N)CC4)CC3)CC2=O)c(C)c1 [Compound P33] | 5 (5=80-100%) | 5 (5=80-100%) | 5 (5=80-100%) | 5 (5=80-100%) | 5 (5=80-100%) | 5 (5=80-100%) | 5 (5=80-100%) | 5 (5=80-100%) |  | 5 (5=80-100%)
12 | CC#Cc1cc(C)c(C2=C(OC(=O)OC)CC3(CCN(C(=O)C(C)OC)CC3)CC2=O)c(C)c1 (stereo not drawn) [Compound P32] | 5 (5=80-100%) | 5 (5=80-100%) | 5 (5=80-100%) | 5 (5=80-100%) | 5 (5=80-100%) | 5 (5=80-100%) | 5 (5=80-100%) | 5 (5=80-100%) |  | 5 (5=80-100%)
13 | CC#Cc1cc(C)c(C2=C(O)CC3(CCN(C=O)CC3)CC2=O)c(C)c1 [Compound A96] | 5 (5=80-100%) | 5 (5=80-100%) | 5 (5=80-100%) | 5 (5=80-100%) | 5 (5=80-100%) | 5 (5=80-100%) | 5 (5=80-100%) | 5 (5=80-100%) |  | 5 (5=80-100%)
14 | CC#Cc1cc(C)c(C2=C(OC(=O)OC)CC3(CCN(C(=O)C(C)O)CC3)CC2=O)c(C)c1 (stereo not drawn) [Compound P31] | 5 (5=80-100%) | 5 (5=80-100%) | 5 (5=80-100%) | 5 (5=80-100%) | 5 (5=80-100%) | 5 (5=80-100%) | 5 (5=80-100%) | 5 (5=80-100%) |  | 5 (5=80-100%)
